From patent US7276337B2, “Compositions and methods for visual ribonuclease detection assays” (Integrated DNA Technologies, Inc., priority 2000, dated 2007)

What was measured:
RNase T1 = RNase T1 (Aspergillus oryzae, UniProt P00651); assay: Fluorometric detection nuclease assay, RNase T1; type: biochemical; conditions: Substrate 50 nM, 37° C. 1 hour
Procedure: (§1) Nuclease assays were conducted using the method of the invention. The Substrate (SEQ ID NO:30) was mixed in 1× Assay Buffer at a concentration of 50 nM (150 pmoles oligonucleotide in 3 mls volume). Test nucleases were added to respective Assay Mixes, including 1 ul of RNase A (1 ug), 1 ul of RNase 1 (100 units), or 1 ul of RNase T1 (1000 units). […] Assays were set up directly in cuvettes as follows:
(§2) Assay Mixes were incubated at 37° C. for 1 hour. Assays were transferred to cuvettes and fluorescence emission at 520 nm was measured using a PTI fluorometer with 490 nm excitation. Substrate SEQ ID NO:30, a preferred Substrate of the invention, reacted with (i.e., detected) all three RNase enzymes, verifying that Substrate compositions of the invention are sensitive to a variety of RNase enzymes.
Assays were conducted using the method of the invention with fluorometric detection. Substrate SEQ ID NO:30 was mixed in 1× Assay Buffer at a concentration of 50 nM (50 pmoles ODN in 1.0 ml volume) in RNase-free disposable cuvettes. […] Dilutions of stock RNase A, RNase 1, and RNase T1 were made in water. […] Assays were incubated at 37° C. for 1 hour and examined for fluorescence emission at 520 nm using 490 nm excitation in a PTI fluorometer. […]

RNase A = molecular target: T1, RNase A (Bos taurus, UniProt P61823); assay: Fluorometric detection nuclease assay, RNase A; type: biochemical, mammalian; conditions: Substrate 50 nM
T1 sequence (P61823 27-150): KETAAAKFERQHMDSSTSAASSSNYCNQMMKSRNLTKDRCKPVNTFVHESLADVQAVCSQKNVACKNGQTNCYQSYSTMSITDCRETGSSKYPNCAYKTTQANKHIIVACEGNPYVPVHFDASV
Procedure: Nuclease assays were conducted using the method of the invention. SEQ ID NO:2 and SEQ ID NO:3 oligonucleotides were individually mixed in 1× Assay Buffer at a concentration of 50 nM (150 pmoles oligonucleotide in 3 mls volume). […] Assays were set up directly in cuvettes as follows:
Assay Mixes were incubated at 37° C. for 1 hour. Fluorescence emission spectra were measured using a PTI fluorometer with 490 nm excitation. Substrate SEQ ID NO:2 (having chimeric RNA-DNA composition) reacted with both DNase I (undesired) and RNase A (desired).
as §1, §2
Substrate SEQ ID NO:30 was mixed in 1× Assay Buffer at a concentration of 50 nM (150 pmoles oligonucleotide in 3 mls volume). RNase A was added at final concentrations of 10 ng/ml, 2 ng/ml, 1 ng/ml, and 0.4 ng/ml. […] Assay mixes were incubated at 37° C. in a cuvette directly in a PTI fluorometer. Fluorescence emission at 520 nm with 490 nm excitation was measured over time. At high nuclease concentrations, the reaction goes rapidly to completion. At lower nuclease concentrations, the reaction rate decreases but with longer incubation times an easily detectable signal is generated. Substrate concentration is fixed and input enzyme (i.e., the test sample) varies. Since the background is stable (monitored in the control reaction), use of extended incubation periods will increase the sensitivity of the assay.
Assays were conducted using the method of the invention with fluorometric detection. Substrate SEQ ID NO:30 was mixed in 1× Assay Buffer at a concentration of 50 nM (50 pmoles ODN in 1.0 ml volume) in RNase-free disposable cuvettes. […] Dilutions of stock RNase A, RNase 1, and RNase T1 were made in water. Undiluted and diluted nuclease (1 ul) was added to respective 1.0 ml Assay Mixes resulting in final dilution factors of 10^−3, 10^−4, 10^−5, 10^−6, 10^−7, 10^−8, and 10^−9. Assays were incubated at 37° C. for 1 hour and examined for fluorescence emission at 520 nm using 490 nm excitation in a PTI fluorometer. Final enzyme concentration reported notes the lowest concentration tested that was reproducibly positive with a signal:noise ratio of at least 2:1.

Ribonuclease T1 = molecular target: T2, Ribonuclease T1 (Aspergillus oryzae, UniProt P00651); assay: Visual detection ribonuclease assay, cleavage of Substrate ODN by RNase T1; type: biochemical; set-up: key to Sensitivity of Substrate ODN to Ribonuclease T1, relative signal intensity: +++ = maximum intensity; ++ = moderate intensity; + = faint but above background; − = negative (identical to background); conditions: Substrate 500 nM; for Sensitivity of Substrate ODN to Ribonuclease T1, relative signal intensity: visual inspection, UV excitation, 37° C. 60 minutes
T2 sequence (P00651 27-130): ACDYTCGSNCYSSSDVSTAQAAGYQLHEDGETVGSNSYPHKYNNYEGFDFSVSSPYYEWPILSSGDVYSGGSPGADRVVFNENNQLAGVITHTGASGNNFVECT
Summary of the method: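 Substrate ODNs at 500 nM in 1× Assay Buffer; RNase T1 serially diluted to final 0.001, 0.0001 and 0.00001 units/ml. After incubation (60 min at 37 °C, or 10 min at room temperature), fluorescence under UV excitation was inspected by eye and scored +++, ++, + or − by relative intensity.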

5′ Fluorescein-AauggcA-QSY-7 3′ (NAAUGGCAN; 5' fluorescein and 3' QSY-7 labels, nucleotide chemistry not given here) [SEQ ID NO:30]
Reactivity with RNase T1 (fluorometer) (RNase T1; RNase T1 333 units/ml, emission 520 nm, 490 nm excitation): reacted
Enzyme Concentration, lowest tested reproducibly positive with signal:noise at least 2:1, RNase T1 (RNase T1; fluorometric detection, dilution factor 10^−8): 0.00001 units/ml
Reactivity with RNase A (fluorometer) (RNase A; RNase A 0.33 ug/ml, 37° C. 1 hour, 490 nm excitation): reacted
Assay background (hydrolysis of the Substrate) over time (RNase A; control reaction without ribonuclease, 1× Assay Buffer, 37° C.): stable
Enzyme Concentration, lowest tested reproducibly positive with signal:noise at least 2:1, RNase A (RNase A; fluorometric detection, 37° C. 1 hour, dilution factor 10^−8): 10 pg/mL
Sensitivity of Substrate ODN to Ribonuclease T1, relative signal intensity (Ribonuclease T1; RNase T1 10^−3 units/ml): +++
Sensitivity of Substrate ODN to Ribonuclease T1, relative signal intensity (Ribonuclease T1; RNase T1 10^−4 units/ml): +++
Sensitivity of Substrate ODN to Ribonuclease T1, relative signal intensity (Ribonuclease T1; RNase T1 10^−5 units/ml): +++
Detection of RNase T1 activity by visual examination (Ribonuclease T1; final dilution factors of stock 10^−2 to 10^−7, room temperature 10 minutes): clearly detectable
